pIC50: −log10 of the molar value.
Tested on: phosphorylation of Serine 473 in Akt in MDA-MB-468 human breast adenocarcinoma cells
Test: In vitro phospho-Ser473 Akt assay (Test (c))
Assay type: cell-based
Conditions: Homo sapiens, MDA-MB-468, 2 h, MDA-MB-468 cells, 2 hours incubation; read-out: Test (c): IC50 versus Serine 473 in Akt
Experimental: (c) In Vitro Phospho-Ser473 Akt Assay
This assay determines the ability of test compounds to inhibit phosphorylation of Serine 473 in Akt as assessed using Acumen Explorer technology (Acumen Bioscience Limited), a plate reader that can be used to rapidly quantitate features of images generated by laser-scanning.
A MDA-MB-468 human breast adenocarcinoma cell line (LGC Promochem, Teddington, Middlesex, UK, Catalogue No. HTB-132) was routinely maintained at 37° C. with 5% CO2 up to a confluency of 70-90% in DMEM containing 10% heat-inactivated FCS and 1% L-glutamine.
For the assay, the cells were detached from the culture flask using ‘Accutase’ (Innovative Cell Technologies Inc., San Diego, Calif., USA; Catalogue No. AT104) using standard tissue culture methods and resuspended in media to give 1.7×10^5 cells per mL. Aliquots (90 μl) were seeded into each of the inner 60 wells of a black Packard 96 well plate (PerkinElmer, Boston, Mass., USA; Catalogue No. 6005182) to give a density of 15000 cells per well. Aliquots (90 μl) of culture media were placed in the outer wells to prevent edge effects. The cells were incubated overnight at 37° C. with 5% CO2 to allow them to adhere.
On day 2, the cells were treated with test compounds and incubated for 2 hours at 37° C. with 5% CO2. Test compounds were prepared as 10 mM stock solutions in DMSO and serially diluted as required with growth media to give a range of concentrations that were 10-fold the required final test concentrations. Aliquots (10 μl) of each compound dilution were placed in a well (in triplicate) to give the final required concentrations. As a minimum response control, each plate contained wells having a final concentration of 100 μM LY294002 (Calbiochem, Beeston, UK, Catalogue No. 440202). As a maximum response control, wells contained 1% DMSO instead of test compound. Following incubation, the contents of the plates were fixed by treatment with a 1.6% aqueous formaldehyde solution (Sigma, Poole, Dorset, UK, Catalogue No. F1635) at room temperature for 1 hour.
All subsequent aspiration and wash steps were carried out using a Tecan 96 well plate washer (aspiration speed 10 mm/sec). The fixing solution was removed and the contents of the plates were washed with phosphate-buffered saline (PBS; 50 μl; Gibco, Catalogue No. 10010015). The contents of the plates were treated for 10 minutes at room temperature with an aliquot (50 μl) of a cell permeabilisation buffer consisting of a mixture of PBS and 0.5% Tween-20. The ‘permeabilisation’ buffer was removed and non-specific binding sites were blocked by treatment for 1 hour at room temperature of an aliquot (50 μl) of a blocking buffer consisting of 5% dried skimmed milk [‘Marvel’ (registered trade mark); Premier Beverages, Stafford, GB] in a mixture of PBS and 0.05% Tween-20. The ‘blocking’ buffer was removed and the cells were incubated for 1 hour at room temperature with rabbit anti phospho-Akt (Ser473) antibody solution (50 μl per well; Cell Signalling, Hitchin, Herts, U.K., Catalogue No 9277) that had been diluted 1:500 in ‘blocking’ buffer. Cells were washed three times in a mixture of PBS and 0.05% Tween-20. Subsequently, cells were incubated for 1 hour at room temperature with Alexafluor488 labelled goat anti-rabbit IgG (50 μl per well; Molecular Probes, Invitrogen Limited, Paisley, UK, Catalogue No. A11008) that had been diluted 1:500 in ‘blocking’ buffer. Cells were washed 3 times with a mixture of PBS and 0.05% Tween-20. An aliquot of PBS (50 μl) was added to each well and the plates were sealed with black plate sealers and the fluorescence signal was detected and analysed.
Fluorescence dose response data obtained with each compound were analysed and the degree of inhibition of Serine 473 in Akt was expressed as an IC50 value.

| SMILES | pIC50 |
| --- | --- |
| C[C@H]1COCCN1c1cc(C(C)(C)S(C)(=O)=O)nc(-c2ccc(NC(=O)N(C)C)cc2)n1 [Example 24ba, 1,1-dimethyl-3-[4-[4-[(3S)-3-methylmorpholin-4-yl]-6-(2-methylsulfonylpropan-2-yl)pyrimidin-2-yl]phenyl]urea] | 5.29 |
| C[C@H]1COCCN1c1cc(C(C)(C)S(C)(=O)=O)nc(-c2ccc(NC(=O)N3CCOCC3)cc2)n1 [Example 24bb, N-[4-[4-[(3S)-3-methylmorpholin-4-yl]-6-(2-methylsulfonylpropan-2-yl)pyrimidin-2-yl]phenyl]morpholine-4-carboxamide] | 5.11 |
| C[C@H]1COCCN1c1cc(C(C)(C)S(C)(=O)=O)nc(-c2ccc(NC(=O)N3CCC(O)CC3)cc2)n1 [Example 24bc, 4-hydroxy-N-[4-[4-[(3S)-3-methylmorpholin-4-yl]-6-(2-methylsulfonylpropan-2-yl)pyrimidin-2-yl]phenyl]piperidine-1-carboxamide] | 6.16 |
| C[C@H]1COCCN1c1cc(C(C)(C)S(C)(=O)=O)nc(-c2ccc(NC(=O)N3CCCC(O)C3)cc2)n1 (stereo partly drawn) [Example 24bd, 3-hydroxy-N-[4-[4-[(3S)-3-methylmorpholin-4-yl]-6-(2-methylsulfonylpropan-2-yl)pyrimidin-2-yl]phenyl]piperidine-1-carboxamide] | 5.49 |
| C[C@H]1COCCN1c1cc(C(C)(C)S(C)(=O)=O)nc(-c2ccc(NC(=O)N3CCC3)cc2)n1 [Example 24be, N-[4-[4-[(3S)-3-methylmorpholin-4-yl]-6-(2-methylsulfonylpropan-2-yl)pyrimidin-2-yl]phenyl]azetidine-1-carboxamide] | 5.31 |
| C[C@H]1COCCN1c1cc(C(C)(C)S(C)(=O)=O)nc(-c2ccc(NC(=O)N3CC(O)C3)cc2)n1 [Example 24bf, 3-hydroxy-N-[4-[4-[(3S)-3-methylmorpholin-4-yl]-6-(2-methylsulfonylpropan-2-yl)pyrimidin-2-yl]phenyl]azetidine-1-carboxamide] | 5.17 |
| C[C@H]1COCCN1c1cc(C(C)(C)S(C)(=O)=O)nc(-c2ccc(NC(=O)N(C)C3CC3)cc2)n1 [Example 24bg, 1-cyclopropyl-1-methyl-3-[4-[4-[(3S)-3-methylmorpholin-4-yl]-6-(2-methylsulfonylpropan-2-yl)pyrimidin-2-yl]phenyl]urea] | 5.62 |
| CC(=O)NCCS(=O)(=O)Cc1cc(N2CCOC[C@@H]2C)nc(-c2ccc(NC(=O)Nc3ccon3)cc2)n1 [Example 40, N-[2-[[6-[(3S)-3-methylmorpholin-4-yl]-2-[4-(1,2-oxazol-3-ylcarbamoylamino)phenyl]pyrimidin-4-yl]methylsulfonyl]ethyl]acetamide] | 7.00 |
| C[C@H]1COCCN1c1cc(CS(=O)(=O)CCO)nc(-c2ccc(NC(=O)Nc3ccon3)cc2)n1 [Example 40a, 1-[4-[4-(2-hydroxyethylsulfonylmethyl)-6-[(3S)-3-methylmorpholin-4-yl]pyrimidin-2-yl]phenyl]-3-(1,2-oxazol-3-yl)urea] | 7.26 |
| C[C@H]1COCCN1c1cc(C(C)(C)O)nc(-c2ccc(NC(=O)Nc3ccon3)cc2)n1 [Example 41, 1-[4-[4-(2-Hydroxypropan-2-yl)-6-[(3S)-3-methylmorpholin-4-yl]pyrimidin-2-yl]phenyl]-3-(1,2-oxazol-3-yl)urea] | 7.33 |
| Cc1nnc(S(=O)(=O)Cc2cc(N3CCOC[C@@H]3C)nc(-c3ccc(NC(=O)NC4CC4)cc3)n2)s1 [Example 43g, 3-cyclopropyl-1-[4-[4-[(3S)-3-methylmorpholin-4-yl]-6-[(5-methyl-1,3,4-thiadiazol-2-yl)sulfonylmethyl]pyrimidin-2-yl]phenyl]urea] | 5.72 |
| C[C@H]1COCCN1c1cc(CS(=O)(=O)C23CC4CC(CC(C4)C2)C3)nc(-c2ccc(NC(=O)NC3CC3)cc2)n1 [Example 43k, 1-[4-[4-(1-adamantylsulfonylmethyl)-6-[(3S)-3-methylmorpholin-4-yl]pyrimidin-2-yl]phenyl]-3-cyclopropyl-urea] | 5.54 |
| C[C@H]1COCCN1c1cc(CS(=O)(=O)c2ccncc2)nc(-c2ccc(NC(=O)NC3CCC3)cc2)n1 [Example 48, 3-Cyclobutyl-1-[4-[4-[(3S)-3-methylmorpholin-4-yl]-6-(pyridin-4-ylsulfonylmethyl)pyrimidin-2-yl]phenyl]urea] | 7.42 |
| CCNC(=O)Nc1ccc(-c2nc(CS(=O)(=O)c3ccncc3)cc(N3CCOC[C@@H]3C)n2)cc1 [Example 48a, 3-ethyl-1-[4-[4-[(3S)-3-methylmorpholin-4-yl]-6-(pyridin-4-ylsulfonylmethyl)pyrimidin-2-yl]phenyl]urea] | 6.60 |
| C[C@H]1COCCN1c1cc(CN(C)C)nc(-c2ccc(NC(=O)NC3CC3)cc2)n1 [Example 49d, 3-cyclopropyl-1-[4-[4-(dimethylaminomethyl)-6-[(3S)-3-methylmorpholin-4-yl]pyrimidin-2-yl]phenyl]urea] | 6.21 |
| C[C@H]1COCCN1c1cc(CN2CCNC(=O)C2)nc(-c2ccc(NC(=O)NC3CC3)cc2)n1 [Example 49j, 3-cyclopropyl-1-[4-[4-[(3S)-3-methylmorpholin-4-yl]-6-[(3-oxopiperazin-1-yl)methyl]pyrimidin-2-yl]phenyl]urea] | 6.89 |
| C[C@H]1COCCN1c1cc(CS(=O)(=O)CCO)nc(-c2ccc(NC(=O)NCc3cnn(C)c3)cc2)n1 [Example 53b, 1-[4-[4-(2-hydroxyethylsulfonylmethyl)-6-[(3S)-3-methylmorpholin-4-yl]pyrimidin-2-yl]phenyl]-3-[(1-methylpyrazol-4-yl)methyl]urea] | 5.52 |
| COCc1cc(N2CCOC[C@@H]2C)nc(-c2ccc(NC(=O)NC3CC3)cc2)n1 [Example 54, 3-Cyclopropyl-1-[4-[4-(methoxymethyl)-6-[(3S)-3-methylmorpholin-4-yl]pyrimidin-2-yl]phenyl]urea] | 6.96 |
| CNC(=O)Nc1ccc(-c2nc(N3CCOC[C@@H]3C)cc(C(C)(C)S(=O)(=O)C3CC3)n2)cc1 [Example 57, 1-[4-[4-(2-Cyclopropylsulfonylpropan-2-yl)-6-[(3S)-3-methylmorpholin-4-yl]pyrimidin-2-yl]phenyl]-3-methyl-urea] | 6.60 |
| C[C@H]1COCCN1c1cc(C(C)(C)S(=O)(=O)C2CC2)nc(-c2ccc(NC(=O)NC(C)(C)CO)cc2)n1 [Example 57a, 1-[4-[4-(2-cyclopropylsulfonylpropan-2-yl)-6-[(3S)-3-methylmorpholin-4-yl]pyrimidin-2-yl]phenyl]-3-(1-hydroxy-2-methyl-propan-2-yl)urea] | 7.19 |
| C[C@H]1COCCN1c1cc(C(C)(C)S(=O)(=O)C2CC2)nc(-c2ccc(NC(=O)Nc3cnn(C)c3)cc2)n1 [Example 57c, 1-[4-[4-(2-cyclopropylsulfonylpropan-2-yl)-6-[(3S)-3-methylmorpholin-4-yl]pyrimidin-2-yl]phenyl]-3-(1-methylpyrazol-4-yl)urea] | 6.44 |
| CNC(=O)Nc1ccc(-c2nc(CS(=O)(=O)C3CC3)cc(N3CCOC[C@@H]3C)n2)cc1 [Example 57d, 1-[4-[4-(cyclopropylsulfonylmethyl)-6-[(3S)-3-methylmorpholin-4-yl]pyrimidin-2-yl]phenyl]-3-methyl-urea] | 6.08 |
| C[C@H]1COCCN1c1cc(CS(=O)(=O)C2CC2)nc(-c2ccc(NC(=O)NC(C)(C)CO)cc2)n1 [Example 57e, 1-[4-[4-(cyclopropylsulfonylmethyl)-6-[(3S)-3-methylmorpholin-4-yl]pyrimidin-2-yl]phenyl]-3-(1-hydroxy-2-methyl-propan-2-yl)urea] | 6.42 |
